Publication PMC8569553, “An improved assay to measure the phospholipid transfer activity of microsomal triglyceride transport protein” (Journal of Lipid Research, 2021)
Changes are numbered by the printed parent chain.

Experiments:
[1] = target: T1, human microsomal triglyceride transfer protein (hMTP) N649S mutant (Homo sapiens, UniProt P55157, N649S); test: NBD-lipid TAG and PL transfer assay in Cos-7 lysate, […] lomitapide; assay type: cell-based
T1 construct: gene MTTP; expressed in Cos-7 cells, lysate
T1 sequence (P55157 19-894 N649S): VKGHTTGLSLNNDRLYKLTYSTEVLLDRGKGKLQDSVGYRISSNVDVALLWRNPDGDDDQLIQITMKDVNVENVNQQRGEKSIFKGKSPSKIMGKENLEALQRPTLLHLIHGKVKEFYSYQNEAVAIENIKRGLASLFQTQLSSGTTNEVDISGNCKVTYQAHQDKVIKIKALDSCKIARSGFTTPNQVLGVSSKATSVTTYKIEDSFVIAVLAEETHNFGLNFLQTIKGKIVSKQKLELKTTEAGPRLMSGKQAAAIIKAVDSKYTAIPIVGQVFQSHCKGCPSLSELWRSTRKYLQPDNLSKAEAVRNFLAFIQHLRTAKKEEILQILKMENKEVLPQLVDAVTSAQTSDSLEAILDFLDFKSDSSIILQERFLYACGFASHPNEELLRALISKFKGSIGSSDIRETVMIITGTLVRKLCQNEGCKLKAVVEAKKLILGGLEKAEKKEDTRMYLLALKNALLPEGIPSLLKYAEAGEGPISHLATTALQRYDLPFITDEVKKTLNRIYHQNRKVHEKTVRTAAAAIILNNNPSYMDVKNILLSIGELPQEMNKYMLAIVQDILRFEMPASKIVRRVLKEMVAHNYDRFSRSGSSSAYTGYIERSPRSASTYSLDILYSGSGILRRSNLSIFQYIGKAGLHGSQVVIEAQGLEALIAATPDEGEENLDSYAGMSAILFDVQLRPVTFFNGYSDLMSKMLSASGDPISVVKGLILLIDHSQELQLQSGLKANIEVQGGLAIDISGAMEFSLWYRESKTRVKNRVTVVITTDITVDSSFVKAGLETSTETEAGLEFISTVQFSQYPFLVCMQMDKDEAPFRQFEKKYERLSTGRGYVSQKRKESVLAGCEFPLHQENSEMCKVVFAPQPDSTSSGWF

[2] = target: T2, Drosophila MTP (dMTP) (Drosophila melanogaster, UniProt Q9VIH3); test: NBD-PE PL transfer assay in Cos-7 lysate, […] lomitapide (partial inhibition); assay type: cell-based
T2 construct: expressed in Cos-7 cells, lysate
T2 sequence (Q9VIH3 28-886): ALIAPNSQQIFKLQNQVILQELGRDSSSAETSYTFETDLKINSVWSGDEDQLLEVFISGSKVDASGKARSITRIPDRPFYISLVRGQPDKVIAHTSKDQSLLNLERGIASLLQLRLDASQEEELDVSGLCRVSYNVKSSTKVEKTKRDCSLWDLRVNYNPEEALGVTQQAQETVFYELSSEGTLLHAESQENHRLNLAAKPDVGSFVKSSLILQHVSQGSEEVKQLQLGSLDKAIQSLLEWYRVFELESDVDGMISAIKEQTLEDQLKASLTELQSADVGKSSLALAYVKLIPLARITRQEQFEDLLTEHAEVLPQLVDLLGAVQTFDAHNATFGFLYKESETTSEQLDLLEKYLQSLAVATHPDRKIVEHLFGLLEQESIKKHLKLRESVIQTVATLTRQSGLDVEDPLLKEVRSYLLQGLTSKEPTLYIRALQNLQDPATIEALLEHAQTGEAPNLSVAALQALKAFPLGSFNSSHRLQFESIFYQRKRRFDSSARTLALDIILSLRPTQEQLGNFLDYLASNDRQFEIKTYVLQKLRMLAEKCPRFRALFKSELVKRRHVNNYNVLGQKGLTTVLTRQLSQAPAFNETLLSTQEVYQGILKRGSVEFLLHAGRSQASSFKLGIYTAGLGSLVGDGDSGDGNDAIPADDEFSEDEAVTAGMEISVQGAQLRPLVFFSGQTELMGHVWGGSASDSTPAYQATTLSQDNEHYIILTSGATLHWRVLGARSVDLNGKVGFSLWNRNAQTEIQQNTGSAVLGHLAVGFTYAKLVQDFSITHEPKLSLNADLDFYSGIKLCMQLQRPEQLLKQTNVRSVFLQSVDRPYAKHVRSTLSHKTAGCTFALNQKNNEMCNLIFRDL

[3] = target: T3, human microsomal triglyceride transfer protein (hMTP) (Homo sapiens, UniProt P55157); test: fluorescent NBD-lipid vesicle transfer assay (PL and TAG) with purified MTP; assay type: biochemical
T3 construct: gene MTTP; hMTP-FLAG, purified from Cos-7 cells; with protein disulphide isomerase (PDI, β subunit)
T3 sequence (P55157 19-894): T1 sequence (P55157 19-894 N649S) with S631N

[4] = target: T4, mouse microsomal triglyceride transfer protein (mMTP) (Mus musculus, UniProt O08601); test: NBD-lipid TAG and PL transfer assay in liver homogenate with Mttp knockout control, […] lomitapide; assay type: cell-based
T4 construct: gene Mttp; endogenous, liver homogenate
T4 sequence (O08601 22-894): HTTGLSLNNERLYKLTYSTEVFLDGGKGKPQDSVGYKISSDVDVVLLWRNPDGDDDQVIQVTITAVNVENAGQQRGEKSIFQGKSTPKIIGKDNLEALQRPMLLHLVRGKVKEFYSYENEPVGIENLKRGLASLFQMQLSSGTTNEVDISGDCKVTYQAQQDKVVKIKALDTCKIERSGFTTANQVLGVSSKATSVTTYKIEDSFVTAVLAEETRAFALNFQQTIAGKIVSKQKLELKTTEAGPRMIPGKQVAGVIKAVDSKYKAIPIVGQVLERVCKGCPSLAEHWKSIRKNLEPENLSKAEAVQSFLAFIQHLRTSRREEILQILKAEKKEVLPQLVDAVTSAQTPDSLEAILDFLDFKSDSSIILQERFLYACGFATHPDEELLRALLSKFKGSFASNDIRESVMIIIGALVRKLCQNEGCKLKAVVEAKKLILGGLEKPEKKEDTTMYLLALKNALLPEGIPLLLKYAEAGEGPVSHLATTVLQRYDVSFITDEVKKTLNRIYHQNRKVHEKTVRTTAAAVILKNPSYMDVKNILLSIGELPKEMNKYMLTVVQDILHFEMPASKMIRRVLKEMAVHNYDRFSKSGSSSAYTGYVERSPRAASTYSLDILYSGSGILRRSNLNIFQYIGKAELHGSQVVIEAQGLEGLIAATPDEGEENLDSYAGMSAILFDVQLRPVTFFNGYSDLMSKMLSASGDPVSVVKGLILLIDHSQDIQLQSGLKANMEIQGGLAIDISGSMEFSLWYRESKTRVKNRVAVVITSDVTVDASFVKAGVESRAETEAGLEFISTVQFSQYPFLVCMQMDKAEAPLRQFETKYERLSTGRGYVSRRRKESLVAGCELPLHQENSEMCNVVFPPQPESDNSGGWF
T4 sequence (P09103 20-509 partner): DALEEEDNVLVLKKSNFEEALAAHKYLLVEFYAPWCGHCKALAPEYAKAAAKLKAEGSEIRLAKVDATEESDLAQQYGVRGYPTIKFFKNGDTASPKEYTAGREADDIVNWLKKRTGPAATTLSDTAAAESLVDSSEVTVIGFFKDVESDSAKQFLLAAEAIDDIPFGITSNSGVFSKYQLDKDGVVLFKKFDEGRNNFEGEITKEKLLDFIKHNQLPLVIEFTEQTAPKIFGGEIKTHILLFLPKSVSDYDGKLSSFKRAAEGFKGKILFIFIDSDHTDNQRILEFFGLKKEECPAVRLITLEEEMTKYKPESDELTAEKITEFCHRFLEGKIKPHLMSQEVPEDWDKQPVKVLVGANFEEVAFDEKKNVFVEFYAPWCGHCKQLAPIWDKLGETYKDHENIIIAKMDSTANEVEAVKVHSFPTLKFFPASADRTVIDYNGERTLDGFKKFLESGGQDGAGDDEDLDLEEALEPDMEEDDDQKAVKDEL

## O=C(NC1CCN(CCCCC2(C(=O)NCC(F)(F)F)c3ccccc3-c3ccccc32)CC1)c1ccccc1-c1ccc(C(F)(F)F)cc1 [lomitapide]
[1]
  NBD-lipid TAG and PL transfer assay in Cos-7 lysate, 1 μM lomitapide: resulted in significantly lower TAG transfer activity, which was completely inhibited by lomitapide
[2]
  NBD-PE PL transfer assay in Cos-7 lysate, 1 μM lomitapide (partial inhibition): This activity was partially inhibited by lomitapide.
[3]
  IC50: 10 nM
[4]
  NBD-lipid TAG and PL transfer assay in liver homogenate with Mttp knockout contr: substantial TAG transfer activity in Mttp^fl/fl liver tissue, and this activity was inhibited by lomitapide
